The source of these data is US12110255B2, “Additive formulation for reduction or prevention of microbially induced corrosion in concrete or cementitious material” (MICROBAN PRODUCTS COMPANY, priority 2017, dated 2024).

Values after ≈ are worked out from the molar mass of the structure shown. Like-named read-outs stand apart in the source and are kept apart here.

One assay has as its system Aspergillus niger. Put plainly: Minimum Inhibitory Concentration (MIC) test. The class given is cell-based. Conditions: Table 5, Tributyl Phosphate Defoamer: No. As to the method: (§1) Testing was also conducted to determine whether the addition of the defoamer or mixing the QS and OIT together would have any effect on the microbial efficacy of these components.
The subject of another assay is Fusarium oxysporum. Put plainly: Minimum Inhibitory Concentration (MIC) test, aqueous state. The class given is cell-based. Conditions: for MIC: Fusarium oxysporum. The procedure: (§2) Table 1 indicates the MIC values generated against Th. Novella, Fusarium and a combination of the two for two antifungal additives that were tested in the aqueous state.
In addition to testing the active ingredients alone, MIC tests were conducted for combinations of the QS and the antifungal actives. An OIT active material was added to this test using the QS molecule to compatibilize the mixture, making the mixture water soluble so MIC testing was possible. Table 2 summarizes the MIC data generated for these actives:
as §1

Another assay deals with Starkeya + Fusarium. Described as above. Conditions: for MIC: Fusarium, read-out: Active Ingredient Minimum Inhibitory Concentration, Starkeya + Fusarium. The class given is cell-based, Starkeya novella + Fusarium oxysporum. As to the method: as §2
(§3) In addition to testing the active ingredients alone, MIC tests were conducted for combinations of the QS and the antifungal actives. An OIT active material was added to this test using the QS molecule to compatibilize the mixture, making the mixture water soluble so MIC testing was possible. Table 2 summarizes the MIC data generated for these actives: […]

The next assay has as its system Starkeya novella. The description is as above. The class given is cell-based. The conditions noted are these: Ancylobacter novellus, active ingredient alone. The procedure:
as §2, §3

[1] abbreviates: Table 5, Tributyl Phosphate Defoamer: No, read-out: MIC, Fusarium oxysporum.
The mark [2] stands for this setting: active ingredient alone, aqueous state.

`CCCCCCCCn1sccc1=O` [OIT, 2-Octyl-2H-isothiazol-3-one]: the MIC against Aspergillus niger was 6.3 mg/L (≈ 29.5 µM); with Fusarium oxysporum (setting [1]), 6.3 mg/L.
As to `Oc1ccccc1-c1ccccc1.[Na]` [P2, Sodium OrthophenylPhenol], the MIC in the assay on Starkeya + Fusarium amounted to 125 mg/L; in the assay with Fusarium oxysporum (read-out: Active Ingredient Minimum Inhibitory Concentration, Fusarium oxysporum) it was 250 mg/L.
Regarding `CCCCCCCCCCCCCCCCCC[N+](C)(C)CCC[Si](OC)(OC)OC.[Cl-]` [QS, 1-Octadecanaminium, N,N-dimethyl-N-(3-(trimethoxysilyl)propyl)-, chloride], the MIC was 31.3 mg/L in the assay with Starkeya + Fusarium (setting [2]); 125 mg/L in the assay on Aspergillus niger; 7.8 mg/L in the assay on Starkeya novella; 15.6 mg/L in the assay with Fusarium oxysporum (setting [1]); 15.6 mg/L with Fusarium oxysporum (active ingredient alone, aqueous state, read-out: Active Ingredient Minimum Inhibitory Concentration, Fusarium oxysporum).
Imazalil Sulphate [IF4]: the “Active Ingredient Minimum Inhibitory Concentration, Starkeya + Fusarium” value in the assay on Starkeya + Fusarium (setting [2]) is listed as 500 ppm. For the same molecule, the “Active Ingredient Minimum Inhibitory Concentration, Fusarium oxysporum” value in the assay with Fusarium oxysporum (setting [2]) was determined as 500 ppm.
